From ChEMBL document CHEMBL5365553, “Design of Synthetic Surrogates for the Macrolactone Linker Motif in Coibamide A” (ACS Med Chem Lett, 2023)
Active and inactive are the calls of the source. The calls are words filed in the database; no cut-off is given here. Positions of bridges follow the written chain, without caps; N, C: chain ends. Non-standard residues stand in square brackets, D forms with d. Residues, ends and D or L forms follow the SMILES beside them. *: point of attachment. NMe2Val = CC(C)[C@@H](C(=O)*)N(C)C; NMeLys(Me) = CNCCCC[C@H](NC)C(=O)O; NMeI = CC[C@H](C)[C@H](NC)C(=O)O; NMeT = CN[C@H](C(=O)O)[C@@H](C)O; NMeL = CN[C@@H](CC(C)C)C(=O)O; NMeDap = CN[C@@H](CN)C(=O)O; dHiv = CC(C)[C@@H](O)C(=O)O; NMeA = CN[C@@H](C)C(=O)O; dNMeA = CN[C@H](C)C(=O)O

Tests used:
Format in all cases: functional, cell-based
[1] = system: U-87 MG; assay: Antiproliferative activity against human U-87 MG cells expressing GLuc assessed as as inhibition of GLuc secretion incubated for 18 hrs by CellTiter-Glo Luminescent Cell Viability Assay; conditions: U-87MG ATCC
[2] = system: U-87 MG; assay: Antiproliferative activity against human U-87MG cells expressing GLuc assessed as cell viability at 0.0003 to 300 nM incubated for 18 hrs by CellTiter-Glo Luminescent Cell Viability Assay; conditions: U-87MG ATCC, dose 0.0003-300 nM
[3] = system: U-87 MG; assay: Antiproliferative activity against human U87 cells expressing GLuc assessed as inhibition of GLuc secretion incubated for 18 hrs by CellTiter-Glo Luminescent Cell Viability Assay; conditions: U-87MG ATCC, dose 0.1-10 µM
[4] = system: SF-268; assay: Inhibition of endogenously-secreted VEGF-A in human SF-268 cells incubated for 24 hrs by ELISA assay; conditions: dose 30-100 nM
[5] = system: SF-268; assay: Downregulation of VEGF-A protein secretion level in human SF-268 cells for 24 hrs by ELISA analysis; conditions: dose 30-100 nM
[6] = system: SF-268; assay: Downregulation of VEGF-A protein secretion level in human SF-268 cells at 30 to 300 nM for 24 hrs by ELISA analysis; conditions: dose 30-300 nM

Row | Structure (SMILES) | inhibition [1] | inhibition [2] | Activity [3] | inhibition [4] | Activity [5] | Activity [6]
1 | CC[C@H](C)[C@H]1C(=O)N[C@@H](C)C(=O)N(C)[C@@H](CC(C)C)C(=O)N[C@@H](Cc2ccc(OC)cc2)C(=O)N(C)[C@H](C)C(=O)NC[C@H](N(C)C(=O)[C@H](CC(C)C)N(C)C(=O)[C@H](C)N(C)C(=O)[C@H](OC(=O)[C@H](C(C)C)N(C)C)C(C)C)C(=O)N(C)[C@@H](C)C(=O)N1C (NMe2Val-[dHiv][NMeA][NMeL][NMeDap][NMeA][NMeI]A[NMeL]Y(Me)[dNMeA]; lactam 4-C) | Dose-Dependent Effect | inactive | Dose-Dependent Effect |  |  | 
2 | CC[C@H](C)[C@H]1C(=O)N[C@@H](C)C(=O)N(C)[C@@H](CC(C)C)C(=O)N[C@@H](Cc2ccc(OC)cc2)C(=O)N(C)[C@H](C)C(=O)N(C)C[C@H](N(C)C(=O)[C@H](CC(C)C)N(C)C(=O)[C@H](C)N(C)C(=O)[C@H](OC(=O)[C@H](C(C)C)N(C)C)C(C)C)C(=O)N(C)[C@@H](C)C(=O)N1C | Dose-Dependent Effect | inactive |  |  |  | 
3 | CC[C@H](C)[C@H]1C(=O)N[C@@H](C)C(=O)N(C)[C@@H](CC(C)C)C(=O)N[C@@H](Cc2ccc(OC)cc2)C(=O)N(C)[C@H](C)C(=O)N[C@H](C)[C@H](N(C)C(=O)[C@H](CC(C)C)N(C)C(=O)[C@H](COC)N(C)C(=O)[C@H](OC(=O)[C@H](C(C)C)N(C)C)C(C)C)C(=O)N(C)[C@@H](COC)C(=O)N1C | Dose-Dependent Effect | inactive | Dose-Dependent Effect | Dose-Dependent Effect | Dose-Dependent Effect | 
4 | CC[C@H](C)[C@H]1C(=O)N[C@@H](C)C(=O)N(C)[C@@H](CC(C)C)C(=O)N[C@@H](Cc2ccc(OC)cc2)C(=O)N(C)[C@H](C)C(=O)N[C@H](C)[C@H](N(C)C(=O)[C@H](CC(C)C)N(C)C(=O)[C@H](C)N(C)C(=O)[C@H](OC(=O)[C@H](C(C)C)N(C)C)C(C)C)C(=O)N(C)[C@@H](C)C(=O)N1C | Dose-Dependent Effect | inactive | Dose-Dependent Effect |  |  | 
5 | CC[C@H](C)[C@H]1C(=O)N[C@@H](C)C(=O)N(C)[C@@H](CC(C)C)C(=O)N[C@@H](Cc2ccc(OC)cc2)C(=O)N(C)[C@H](C)C(=O)O[C@H](C)[C@H](N(C)C(=O)[C@H](CC(C)C)N(C)C(=O)[C@H](C)N(C)C(=O)[C@H](OC(=O)[C@H](C(C)C)N(C)C)C(C)C)C(=O)N(C)[C@@H](C)C(=O)N1C (NMe2Val-[dHiv][NMeA][NMeL][NMeT][NMeA][NMeI]A[NMeL]Y(Me)[dNMeA]; ester 4-C) | Dose-Dependent Effect | inactive | Dose-Dependent Effect |  |  | 
6 | CC[C@H](C)[C@H]1C(=O)N[C@@H](C)C(=O)N(C)[C@@H](CC(C)C)C(=O)N[C@@H](Cc2ccc(-c3ccccc3)cc2)C(=O)N(C)[C@H](C)C(=O)N[C@H](C)[C@H](N(C)C(=O)[C@H](CC(C)C)N(C)C(=O)[C@H](COC)N(C)C(=O)[C@H](OC(=O)[C@H](C(C)C)N(C)C)C(C)C)C(=O)N(C)[C@@H](COC)C(=O)N1C | Dose-Dependent Effect | inactive | Dose-Dependent Effect |  |  | 
7 | CC[C@H](C)[C@H]1C(=O)N[C@@H](C)C(=O)N(C)[C@@H](CC(C)C)C(=O)N[C@@H](Cc2ccc(OC)cc2)C(=O)N(C)CCCC[C@H](N(C)C(=O)[C@H](CC(C)C)N(C)C(=O)[C@H](C)N(C)C(=O)[C@H](OC(=O)[C@H](C(C)C)N(C)C)C(C)C)C(=O)N(C)[C@@H](C)C(=O)N1C (NMe2Val-[dHiv][NMeA][NMeL][NMeLys(Me)][NMeA][NMeI]A[NMeL]Y(Me); lactam 4-C) | Dose-Dependent Effect | inactive | Dose-Dependent Effect | Dose-Dependent Effect |  | Dose-Dependent Effect
8 | CC[C@H](C)[C@H]1C(=O)N[C@@H](C)C(=O)N(C)[C@@H](CC(C)C)C(=O)N[C@@H](Cc2ccc(OC)cc2)C(=O)N(C)[C@H](C)/C=C/[C@H](C)[C@H](N(C)C(=O)[C@H](CC(C)C)N(C)C(=O)[C@H](C)N(C)C(=O)[C@H](OC(=O)[C@H](C(C)C)N(C)C)C(C)C)C(=O)N(C)[C@@H](C)C(=O)N1C | Dose-Dependent Effect | inactive | Dose-Dependent Effect |  |  | 
9 | CC[C@H](C)[C@H]1C(=O)N[C@@H](C)C(=O)N(C)[C@@H](CC(C)C)C(=O)N[C@@H](Cc2ccc(OC)cc2)C(=O)N(C)[C@H](C)CC[C@H](C)[C@H](N(C)C(=O)[C@H](CC(C)C)N(C)C(=O)[C@H](C)N(C)C(=O)[C@H](OC(=O)[C@H](C(C)C)N(C)C)C(C)C)C(=O)N(C)[C@@H](C)C(=O)N1C | Dose-Dependent Effect | inactive | Dose-Dependent Effect | Dose-Dependent Effect |  | Dose-Dependent Effect
